The results in this text go back to US4439436A, “1,3-Dioxolo(4,5-G)quinoline compounds” (Sterling Drug Inc., priority 1982, dated 1984).

Values after ≈ are worked out from the molar mass of the structure shown. Read-outs that look alike come from different tables or passages of the source.

Assay [1] relates to Escherichia coli Vogel. Briefly: in vitro antibacterial activity, serial dilution (MIC). The class given is cell-based. Here is the method: (§1) The in vitro antibacterial activity was determined by conventional serial dilution procedures. Bacterial cultures were grown in tryptose phosphate broth or brain heart infusion broth (containing heat-inactivated normal horse serum for tests with S. pyogenes) overnight at 37° C. and subsequently diluted in double strength broth to provide bacterial inocula of about 2×10^5 cells/ml. Aqueous solutions of the compounds of the invention were prepared by dissolving the free acid form in 0.5 N sodium hydroxide. The solutions were diluted with sterile distilled water to 100 mcg/ml of compound in terms of the free acid. Serial two-fold dilutions of the compound stock solutions were prepared in water and 0.5 ml of each dilution was transferred to sets of tubes, one set for each bacterial inoculum. Each tube was then inoculated with 0.5 ml of the appropriate culture, resulting in a final bacterial concentration of about 1×10^5 cells/ml. The minimal inhibitory concentration (MIC), defined as the lowest concentration of the test compound to inhibit visible bacterial growth, was recorded after 18-20 hours of static incubation at 37° C.

A further assay relates to Proteus mirabilis MGH-1. Described as above. The class given is cell-based. Particulars: MGH1. On the procedure:
as §1

For another assay, the system named is Proteus vulgaris 9920. Described as above. The class given is cell-based. Here is the method:
as §1

Assay [2] has as its system Klebsiella pneumoniae 39645. The description is as above. The class given is cell-based. Here is the method: as §1
Assay [3] concerns Escherichia coli Vogel. Briefly: in vivo antibacterial activity in mice infected with E. coli. Further details: species or system female mice. To be noted: sc, 168 h. On the procedure: (§2) The in vivo antibacterial activity of the compounds of the invention was determined in female mice, 18-20 grams each, by the following procedure:
(§3) Aqueous solutions of the compounds to be tested were prepared by dissolving the free acid form in dilute sodium hydroxide and diluting the solution with distilled water to the desired volume.
(§4) Cultures of Escherichia coli Vogel prepared in brain heart infusion broth, cultures of Klebsiella pneumoniae 39645 grown in tryptose phosphate broth with 5% rabbit serum diluted in the same broth were used to infect the mice as follows:
E coli: mice were inoculated intraperitoneally with 0.5 ml of the bacterial test inoculum (1.87×10^7 and 5×10^6 cells/ml respectively).
Mice infected with E. coli were medicated once (0.5 ml) one-half hour post infection, the test compound being administered by the subcutaneous (s.c.) route. Deaths were recorded daily for seven days.
(§5) Groups of ten animals each for four or five dose levels were thus treated and the number of survivors in each group recorded. The fifty percent protective dose values (PD50) were then calculated.

The subject of assay [4] is Pseudomonas aeruginosa MGH-2. The assay is described as follows: in vitro antibacterial activity, serial dilution (MIC). To be noted: MGH2, 18-20 hours, 37° C., about 1×10^5 cells/ml, read-out: Minimal Inhibitory Concentration. The class given is cell-based. Here is the method: as §1
In assay [5] the test system is Staphylococcus aureus Smith. The assay is described as above. To be noted: 18-20 hours, 37° C., about 1×10^5 cells/ml, read-out: Minimal Inhibitory Concentration. The class given is cell-based. Here is the method: as §1
Assay [6] deals with Streptococcus pyogenes C203. Described as above. The class given is cell-based. To be noted: broth with heat-inactivated normal horse serum, 18-20 hours, 37° C., read-out: Minimal Inhibitory Concentration. On the procedure:
as §1

The subject of assay [7] is Klebsiella pneumoniae 39645. Briefly: in vivo antibacterial activity in mice infected with K. pneumoniae. Further details: species or system female mice. Particulars: Klebsiella pneumoniae, 39645, sc, 336 h; K. pneumoniae intramuscularly; s.c. 17 h and 1 h preinfection, 6 h postinfection, twice a day next three days; fourteen days; read-out: Protective Dose (PD50). Here is the method:
as §2, §3, §4
K. pneumoniae: mice were inoculated intramuscularly in the right hind leg with 0.2 ml of the bacterial test inoculum (2.05×10^4 cells/ml).
Mice infected with K. pneumoniae were medicated at the following times: seventeen hours and one hour preinfection, six hours postinfection and twice a day for the next three days. The test compound was administered by the subcutaneous (0.2 ml) route. Deaths were recorded daily for fourteen days.
as §5

Where [8] appears, read: Escherichia coli, E. coli, in vitro, read-out: MIC.
Where [9] appears, read: Proteus mirabilis, P. mirab., in vitro, read-out: MIC.
Where [10] appears, read: Proteus vulgaris, 9920, P. vulg., in vitro, read-out: MIC.
The mark [11] stands for this setting: Escherichia coli Vogel, 18-20 hours, 37° C., about 1×10^5 cells/ml, read-out: Minimal Inhibitory Concentration.
Where [12] appears, read: Klebsiella pneumoniae 39645, 18-20 hours, 37° C., about 1×10^5 cells/ml, read-out: Minimal Inhibitory Concentration.
Setting [13] is: Proteus mirabilis MGH-1, 18-20 hours, 37° C., about 1×10^5 cells/ml, read-out: Minimal Inhibitory Concentration.
[14] abbreviates: Proteus vulgaris 9920, 18-20 hours, 37° C., about 1×10^5 cells/ml, read-out: Minimal Inhibitory Concentration.
Setting [15] is: E. coli intraperitoneally, single s.c. dose one-half hour post infection, seven days, read-out: Protective Dose (PD50).

On to `Nn1cc(C(=O)O)c(=O)c2cc3c(cc21)OCO3` [Example 2, 5-Amino-5,8-dihydro-8-oxo-1,3-dioxolo[4,5-g]quinoline-7-carboxylic acid], for which the MIC is 7.8 µg/mL (≈ 31.4 µM) in the assay on Escherichia coli Vogel [1] (setting [8]), 3.9 µg/mL (≈ 15.7 µM) in the assay with Proteus mirabilis MGH-1 (setting [9]) and 3.9 µg/mL (≈ 15.7 µM) in the assay with Proteus vulgaris 9920 (setting [10]).
Turning to `CN(C=O)n1cc(C(=O)O)c(=O)c2cc3c(cc21)OCO3` [Example 7, 5-[(Formyl)methylamino]5,8-dihydro-8-oxo-1,3-dioxolo[4,5-g]-quinoline-7-carboxylic acid], the MIC in the assay on Escherichia coli Vogel [1] (setting [8]) amounted to 31.3 µg/mL (≈ 108 µM); in [2] (Klebsiella pneumoniae, 39645, K. pneum., in vitro, read-out: MIC) it was 15.6 µg/mL (≈ 53.8 µM); in the assay with Proteus mirabilis MGH-1 (setting [9]), 7.8 µg/mL (≈ 26.9 µM); with Proteus vulgaris 9920 (setting [10]) it was 15.6 µg/mL (≈ 53.8 µM). Moreover, the ED50 in the assay with Escherichia coli Vogel [3] (in vivo against E. coli, read-out: PD50) came out at 40 mg/kg.
With `CNn1cc(C(=O)O)c(=O)c2cc3c(cc21)OCO3` [Example 9, 5,8-Dihydro-5-(methylamino)-8-oxo-1,3-dioxolo[4,5-g]quinoline-7-carboxylic acid], the MIC came to 0.25 µg/mL (≈ 0.953 µM) with Escherichia coli Vogel [1] (setting [11]); 1 µg/mL (≈ 3.81 µM) in assay [2] (setting [12]); 0.25 µg/mL (≈ 0.953 µM) in the assay on Proteus mirabilis MGH-1 (setting [13]); 0.125 µg/mL (≈ 0.477 µM) in the assay on Proteus vulgaris 9920 (setting [14]); 15.6 µg/mL (≈ 59.5 µM) in assay [4]; 3.9 µg/mL (≈ 14.9 µM) in assay [5]. Further, the MIC in [6] is more than 500 µg/mL. The values for the ED50 (in the assay on Escherichia coli Vogel [3] (setting [15]); in [7]) were 3.3 mg/kg and 28 mg/kg, respectively.
Turning to `CCNn1cc(C(=O)O)c(=O)c2cc3c(cc21)OCO3` [Example 12, 5-(Ethylamino)-5,8-dihydro-8-oxo-1,3-dioxolo[4,5-g]quinoline-7-carboxylic acid], the MIC in the assay with Escherichia coli Vogel [1] (setting [11]) was 1 µg/mL (≈ 3.62 µM); in assay [2] (setting [12]), 1.95 µg/mL (≈ 7.06 µM); with Proteus mirabilis MGH-1 (setting [13]) it was 1.95 µg/mL (≈ 7.06 µM); in the assay with Proteus vulgaris 9920 (setting [14]) it was 0.25 µg/mL (≈ 0.905 µM); in assay [4], more than 62.5 µg/mL; in assay [5], more than 15.6 µg/mL. For the same compound, in [6], the MIC is more than 62.5 µg/mL. The ED50 in the assay with Escherichia coli Vogel [3] (setting [15]) was 7 mg/kg; in assay [7], 50 mg/kg.
For the compound `CCCNn1cc(C(=O)O)c(=O)c2cc3c(cc21)OCO3` [Example 14, 5,8-Dihydro-8-oxo-5-(propylamino)-1,3-dioxolo[4,5-g]quinoline-7-carboxylic acid], the MIC with Escherichia coli Vogel [1] (setting [11]) is more than 7.8 µg/mL; in assay [2] (setting [12]) it was more than 7.8 µg/mL; with Proteus mirabilis MGH-1 (setting [13]), more than 7.8 µg/mL; in the assay with Proteus vulgaris 9920 (setting [14]) it was 3.9 µg/mL (≈ 13.4 µM); in [4] it was more than 62.5 µg/mL; in assay [5], more than 62.5 µg/mL. Further, the MIC in assay [6] is more than 62.5 µg/mL. The ED50 in the assay on Escherichia coli Vogel [3] (setting [15]) is 141 mg/kg; in assay [7] it was more than 200 mg/kg.
